# Measured values from ChEMBL document CHEMBL1201862, “PubChem BioAssay data set” (2004).
# Calls of active or inactive are those of the source.
# What was measured:
# [1] = target: G-protein coupled receptor 55 (Homo sapiens, UniProt Q9Y2T6); experiment: selective activators of receptor GPR55 – imaging, U2OS cells, beta-arrestin-GFP redistribution, primary screen (AID 1961); assay type: functional
# [2] = viability of uninfected HEp-2 cells – cell-based, HTS, cytotoxicity control for RSV inhibitor project, dose response (AID 2410); assay type: functional; settings: human respiratory syncytial virus
# [3] = target: T1, Alkaline phosphatase, tissue-nonspecific isozyme (Homo sapiens, UniProt P05186); experiment: potency against alkaline phosphatase TNAP – biochemical, luminescent, dose response, SAR follow-up (AID 1056)
# T1 sequence (P05186 whole entry): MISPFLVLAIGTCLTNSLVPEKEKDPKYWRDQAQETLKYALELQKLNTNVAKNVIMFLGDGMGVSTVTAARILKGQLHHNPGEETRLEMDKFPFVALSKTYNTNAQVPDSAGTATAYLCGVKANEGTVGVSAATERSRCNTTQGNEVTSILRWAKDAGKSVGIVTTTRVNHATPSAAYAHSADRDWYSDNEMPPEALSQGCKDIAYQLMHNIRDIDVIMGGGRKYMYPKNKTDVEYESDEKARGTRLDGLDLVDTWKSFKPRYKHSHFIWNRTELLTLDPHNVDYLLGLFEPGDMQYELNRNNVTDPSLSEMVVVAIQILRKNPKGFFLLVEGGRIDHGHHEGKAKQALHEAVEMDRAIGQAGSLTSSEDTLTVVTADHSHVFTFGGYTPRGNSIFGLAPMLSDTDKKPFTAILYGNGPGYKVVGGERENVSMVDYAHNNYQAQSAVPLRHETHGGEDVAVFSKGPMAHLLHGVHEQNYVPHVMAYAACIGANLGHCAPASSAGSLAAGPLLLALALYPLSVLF
# [4] = target: Glyceraldehyde-3-phosphate dehydrogenase (Homo sapiens, UniProt P04406)
# Sequence of Glyceraldehyde-3-phosphate dehydrogenase (P04406 whole entry): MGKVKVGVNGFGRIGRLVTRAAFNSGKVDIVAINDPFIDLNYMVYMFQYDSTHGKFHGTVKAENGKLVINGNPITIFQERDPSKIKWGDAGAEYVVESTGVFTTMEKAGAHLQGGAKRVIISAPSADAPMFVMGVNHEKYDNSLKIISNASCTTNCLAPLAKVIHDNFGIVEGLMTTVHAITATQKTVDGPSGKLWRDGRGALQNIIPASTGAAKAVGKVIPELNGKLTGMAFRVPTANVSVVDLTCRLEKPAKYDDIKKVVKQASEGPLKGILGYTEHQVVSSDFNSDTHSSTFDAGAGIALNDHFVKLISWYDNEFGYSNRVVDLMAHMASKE
# [5] = target: T2, Short transient receptor potential channel 4 (Mus musculus, UniProt Q9QUQ5); experiment: block of DAMGO-driven TRPC4 calcium entry – cell-based, HEK293 TRPC4/mu-opioid, Fluo-4 calcium, dose response (AID 434942); assay type: functional;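 further: potency of inhibitors blocking the TRPC4 calcium response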
# T2 sequence (Q9QUQ5 whole entry): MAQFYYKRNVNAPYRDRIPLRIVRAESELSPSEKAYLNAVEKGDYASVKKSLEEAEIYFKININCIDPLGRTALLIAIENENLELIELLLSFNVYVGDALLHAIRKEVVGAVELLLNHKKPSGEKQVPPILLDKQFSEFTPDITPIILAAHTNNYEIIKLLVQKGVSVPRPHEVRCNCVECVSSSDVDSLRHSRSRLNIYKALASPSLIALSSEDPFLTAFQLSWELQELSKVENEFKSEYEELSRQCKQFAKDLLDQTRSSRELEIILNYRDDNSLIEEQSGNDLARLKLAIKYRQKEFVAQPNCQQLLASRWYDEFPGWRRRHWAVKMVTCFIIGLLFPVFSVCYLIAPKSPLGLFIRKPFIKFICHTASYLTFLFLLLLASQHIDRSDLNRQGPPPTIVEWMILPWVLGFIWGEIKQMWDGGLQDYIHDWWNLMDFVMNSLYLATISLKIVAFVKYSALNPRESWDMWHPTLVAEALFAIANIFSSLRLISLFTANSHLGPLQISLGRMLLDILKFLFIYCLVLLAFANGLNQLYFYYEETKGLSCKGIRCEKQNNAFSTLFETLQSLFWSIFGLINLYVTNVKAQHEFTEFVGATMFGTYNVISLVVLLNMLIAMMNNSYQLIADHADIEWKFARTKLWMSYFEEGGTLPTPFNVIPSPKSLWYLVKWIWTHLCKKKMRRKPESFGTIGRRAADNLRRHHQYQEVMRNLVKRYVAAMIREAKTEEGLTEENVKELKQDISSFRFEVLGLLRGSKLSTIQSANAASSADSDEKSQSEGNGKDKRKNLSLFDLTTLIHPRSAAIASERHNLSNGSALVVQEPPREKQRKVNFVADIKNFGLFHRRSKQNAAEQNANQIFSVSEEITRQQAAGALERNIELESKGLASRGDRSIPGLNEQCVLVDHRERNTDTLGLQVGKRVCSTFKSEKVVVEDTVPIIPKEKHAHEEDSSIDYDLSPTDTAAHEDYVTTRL
# HEK293 [6] = experiment: cells; assay type: functional, cell-based; settings: Homo sapiens
# HEK293 [7] = experiment: cells; assay type: functional, cell-based; settings: Homo sapiens; remark: listed apart in the source
# HEK293 [8] = experiment: NOD2 signaling inhibitors in MDP-stimulated cells, cell-based, uHTS, luminescence (AID 2001); assay type: functional; settings: Homo sapiens
# HEK293 [9] = experiment: cells; assay type: functional, cell-based; settings: Homo sapiens; remark: listed apart in the source
# [10] = Luminescence Cell-Based Dose Confirmation HTS to Identify Inhibitors of Platelet Dense Granule Release. [Related pubchem assays: 1663 (Primary HTS), 1678 (Summary of Project)]; assay type: functional
# [11] = general cell-killing toxicity readout – plate reader, dry powder samples, cytotoxicity control for PAX8 inhibitor project, dose response (AID 743021); assay type: functional, cell-based
# HEK293 [12] = experiment: inhibition of NOD1-driven NF-kB reporter – cell-based, luminescence, uHTS, primary screen (AID 1578); assay type: functional; settings: Homo sapiens
# [13] = target: Eukaryotic translation initiation factor 4E (Mus musculus, UniProt P63073); experiment: blockers of eIF4G binding by eIF4E – biochemical, TR-FRET, dose response (AID 855); assay type: functional;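 further: potency for disrupting eIF4E binding to eIF4GI seen as loss of FRET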
# Sequence of Eukaryotic translation initiation factor 4E (P63073 whole entry): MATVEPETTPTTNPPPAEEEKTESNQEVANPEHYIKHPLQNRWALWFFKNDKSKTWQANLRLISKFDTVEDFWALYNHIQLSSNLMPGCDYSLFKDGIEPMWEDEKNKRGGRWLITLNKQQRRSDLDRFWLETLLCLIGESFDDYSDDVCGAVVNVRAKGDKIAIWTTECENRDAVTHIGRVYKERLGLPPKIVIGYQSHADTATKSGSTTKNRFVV
# Sequence of G-protein coupled receptor 55 (Q9Y2T6 whole entry): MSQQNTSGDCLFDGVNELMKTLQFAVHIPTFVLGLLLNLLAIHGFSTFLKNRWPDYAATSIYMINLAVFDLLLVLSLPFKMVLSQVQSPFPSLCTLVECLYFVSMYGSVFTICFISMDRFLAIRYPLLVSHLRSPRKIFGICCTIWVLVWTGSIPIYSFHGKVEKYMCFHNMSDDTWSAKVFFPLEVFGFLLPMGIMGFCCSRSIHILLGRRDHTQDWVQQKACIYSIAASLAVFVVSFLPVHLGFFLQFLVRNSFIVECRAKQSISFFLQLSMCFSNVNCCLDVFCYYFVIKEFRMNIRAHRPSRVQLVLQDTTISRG
smiles,measurement,setting,value
Oc1c(Cl)cc(Cl)cc1/C=N/c1ccccc1N1CCCC1,EC50,[1],> 32 µM (inactive)
same,CC50,[2],20.9 µM (active)
O=S(=O)(Nc1cccnc1)c1ccccc1OC(F)(F)F,IC50,[3],> 100 µM (inactive)
same,IC50,[4],> 100 µM (not active)
COc1cc(CNC2CCCC2)c(Br)cc1OC1CCCC1,EC50,[5],37.3 nM (active)
CC(C)C[C@@H](CSc1ccccc1)N1CCN(CCc2ccccc2)CCC1=O,EC50,[1],6.56 µM (active)
Cc1ccc2cc(CN(CCCN3CCOCC3)C(c3nnnn3Cc3ccco3)C(C)C)c(O)nc2c1C (configuration not stated),EC50,[5],473 nM (active)
COc1ccc(N(Cc2cc3cc(OC)ccc3nc2O)S(=O)(=O)c2ccc(NC(C)=O)cc2)cc1,IC50,HEK293 [6],7.22 µM (active)
same,IC50,HEK293 [7],> 20 µM (inactive)
same,IC50,HEK293 [8],> 20 µM (inactive)
same,IC50,HEK293 [9],> 20 µM (inactive)
same,EC50,[10],> 112 µM (not active)
same,AC50,[11],49.1 µM (active)
same,EC50,HEK293 [12],> 20 µM (inactive)
Cc1ccc(Nc2cc(C)nc3ccc(C)cc23)cc1,EC50,[5],1500 nM (active)
same,CC50,[2],45.9 µM (active)
COc1ccccc1NS(=O)(=O)c1ccc(NN=C2CCCC2)c([N+](=O)[O-])c1,IC50,[13],> 64 µM (inactive)
